# Like-named read-outs stand apart in the source and are kept apart here.
# Tests used:
# [1] = tested on: HepG2 (human hepatocellular carcinoma) cells; assay: HepG2 cytotoxicity assay (CCK-8, 96 h); assay type: cell-based; conditions: mean ± SEM
# Procedure: The HepG2 (human hepatocellular carcinoma) cells were obtained from ATCC (American Type Culture Collection) and grown in RPMI media. Cytotoxicity assay was performed in 384-well format, and 25 µL, approximately 1.6 × 10^4 cells/mL, suspension was added to clear-bottom 384-well Griener plates and incubated in 5% CO2 incubator, at 37 °C for 24 h. Once the cells adhered, 125 nL of threefold serially diluted compounds in DMSO was added. Plates were incubated for 96 h, at 37 °C, in a 5% CO2 incubator. Plates were read for viability by adding 10 µL of CCK-8 reagent (APExBIO) into each well, followed by 3 h incubation and absorbance reading at […], using an Envision plate reader. […] Puromycin was used as a positive control. All experiments had two technical replicates and three biological replicates. Appropriate statistical tests were used for evaluating significance, and mean ± SEM is represented in the tables.
# [2] = tested on: T. b. brucei strain Lister 427 (bloodstream form); assay: T. b. brucei growth inhibition assay (CellTiter-Glo, 48 h); assay type: cell-based, Trypanosoma brucei brucei
# Procedure: The T. b. brucei strain Lister 427 (bloodstream form) parasites were continuously grown in complete HMI-9 medium supplemented with 10% Serum Plus and 10% heat-inactivated fetal bovine serum (FBS). All other parasite strains were cultured as described elsewhere.
# For determination of 50% growth inhibition, all compounds were dissolved in DMSO, and 200 nL of threefold serially diluted compounds were added into solid-bottom 384-well white plates (Greiner Bio-One, Kremsmunster, Austria) by an Echo 555 acoustic liquid-handling system. Forty microliters of 10^4 cells/mL of T. b. brucei parasites was added into each well, and the plates were incubated in a 5% CO2 incubator at 37 °C for 48 h. Viability of parasites were determined by measuring intracellular ATP levels, using CellTiter-Glo (CTG) luminescent cell viability reagent (Promega, Madison, Wisconsin WI, USA). The EC50 values were determined by using GraphPad Prism software. Growth inhibition assays for all clinical isolates were carried out as described earlier. All experiments had two technical replicates and three biological replicates. Appropriate statistical tests were used for evaluating significance, and mean ± SEM is represented in the tables.
SMILES,HepG2 CC50 [1],"EC50 ([2]; Lister 427 bloodstream form, mean ± SEM, read-out: T. b. brucei EC50)","EC50 ([2]; Trypanosoma brucei, read-out: T. b. brucei EC50, Lister 427 bloodstream form, 48 h, mean ± SEM)"
Cc1nc(C)c(C(=O)Nc2ccc(F)c(-c3nc4ncc(-c5ccccc5)cn4n3)c2)o1 [GNF3849],cytotoxic,–,–
Cc1nc(C)c(C(=O)Nc2ccc(F)c(-c3nc4ncc(-c5ccccn5)cn4n3)c2)o1 [GNF6702],–,70 ± 3 nM,< 70 nM
